This is an account of results in article PMC10500703 (Journal of medicinal chemistry, 2021).

Format in all cases: cell-based, Mycobacterium tuberculosis
Test [1] relates to Mtb InhA-OE (H37Rv-LP:fabG1/inhA-c-15t).
For the next test, the system named is Mtb ∆cyd.
The next test has as its system Mtb EthA C253R.

A word on the MIC: it is the lowest concentration that inhibits growth of the organism. On to “3-(1,3-bis(4-chlorophenyl)-1H-pyrazol-5-yl)-N-(methylsulfonyl)propanamide [Compound 8]”, for which the MIC came out at 0.24 µM in test [1] and 4 µM against Mtb ∆cyd. Turning to `CCc1cc(C(N)=S)ccn1` [ETH, Ethionamide], the MIC with Mtb EthA C253R is given as over 125 µM.
